Results as given in US8057829B2, “Methods for repelling insects using sesquiterpene hydrocarbons and their derivatives” (Sterling International Inc., priority 2008, dated 2011).

How the values were obtained:
[1] = test system: Aedes aegypti; assay: K&D module behavioral bioassay (topical repellency, biting); format: in vivo
Summary of the method: (§1)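 In vitro six-cell K&D module over 38 °C CPDA+ATP artificial blood under collagen membrane, topped by nylon organdy treated with five ethanol dilutions of test chemical (ethanol blank; DEET ca. 10 μg/cm^2 positive control). Five starved (24 h) 5–10 d-old females per cell. Biting counted over 3 min, three replicates per chemical and species.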

[2] = test system: Anopheles stephensi; assay: as above; format: in vivo
Summary of the method: as §1

[3] = test system: female mosquito Culex pipiens antenna; assay: GC-EAD antennal response, Culex pipiens; details: female Culex pipiens antennae; about 100 ng of each compound; responses weak, but repeatable; FIGS. 7 and 8
Method: The GC-EAD responses of the female mosquito Culex pipiens antenna were tested on a synthetic mixture of 1-octen-3-ol, and two sesquiterpene hydrocarbons, β-caryophyllene and isocaryophyllene, with about 100 ng of each compound in the mixture.
The GC-EAD responses of the female mosquito Culex pipiens antenna were tested on a synthetic mixture of 1-octen-3-ol, and representative sesquiterpene hydrocarbons and derivatives including (+)-longipinene, (−)-isolongifolene, (+)-longifolene, β-caryophyllene, and isolongifolenone, with about 100 ng of each compound in the mixture.
Antennal responses were weak, but repeatable, thus are considered to be true responses.
The following procedures were employed to test the EAD response of an insect antenna to a repellent compound. The GC-EAD technique provides an efficient tool for screening behaviorally active repellents. Several synthetic mixtures of potential insect repellent candidates, mostly sesquiterpene hydrocarbons and derivatives, were analyzed in splitless mode using a Varian CP-3800 GC equipped with a polar column (Innowax; 1.0 μm film thickness, 30 m×0.53 mm ID; J & W Scientific), and a 1:1 effluent splitter that allowed simultaneous flame ionization detection (FID) and EAD of the separated volatile compounds. Helium was used as the carrier gas, and the injector temperature was 220° C. The column temperature was 50° C. for 2 min, rising to 240° C. at 10° C./min, then held for 10 min. The outlet for the EAD was held in a humidified air stream flowing at 0.5 liter/min. over an antennal preparation. A glass capillary indifferent electrode filled with Beadle-Ephrussi Ringer, and grounded via a silver wire, was inserted into the severed insect's head with the antennae. A similar recording electrode connected to a high-impedance DC amplifier with automatic baseline drift compensation was placed in contact with the distal end of one antenna (Zhang et al., Chemoecology, 10:69-80 (2000)). The antennal signals were stored and analyzed on a PC equipped with a serial IDAC interface box and the program EAD ver. 2.5 (Syntech, Hilversum, The Netherlands). The compound 1-octen-3-ol (known attractant for many flies and mosquitoes) was included in most of the synthetic mixtures, as a positive control. The results of the experiments are shown in FIGS. 1-10 and described above.

[4] = test system: Aedes Aegypti, Anopheles stephensi and the sand fly P. papatasi; assay: Y-tube bioassay, statements pooled for the three species; format: in vivo, Aedes aegypti; Anopheles stephensi; Phlebotomus papatasi; details: clove oil ca. 10 mg/day, patchouli oil 15 mg/d, sesquiterpenes 1 to 35 mg/d release
Method: Aegypti and An. stephensi, and one species of sand fly, P. papatasi. Both the mosquitoes and the sand flies used in the study were from colonies maintained at the Walter Reed Army Institute of Research, Department of Entomology, Silver Spring, Md. This Y-tube bioassay system, equipped with CO2-enriched air (ca. 1 l/min) as an attractant, was made from three clear acrylic tubes (4″ diameter; 12″ length) with symmetrical 120° angles among the three tube arms; and a screen butterfly valve on the top part of the bottom releasing tube. These spatial repellency tests were carried out during 8:00 am-12:00 pm (photophase) time period for Ae. aegypti and 1:00-5:00 pm (shifted scotophase) time period for the species of night-flying mosquitoes and sand fly in a temperature and humidity controlled testing room (23-25° C. and 20-40% RH). Female mosquitoes or sand flies were stored at ˜25-26° C., 50-89% RH, 12:12 hr. (L/D), fed with 10% sucrose solution before testing. The candidate chemical (individual or mixture) dispenser and a blank control were placed in the upper left or right arm of the Y-tube before releasing 25-40, 6 to 10 day-old female mosquitoes (or 3 to 10 day-old sand flies) into the bottom tube via a small hole. After a 30-60 sec acclimation period, the butterfly screen valve (door) on the top of the bottom tube was opened. After 10 min., the valve was closed and the numbers of mosquitoes or sand flies in each arm (including the bottom tube) were counted. In order to minimize the position effect, the same experiment was repeated once with the treatment and blank control arms shifted using a new (clean) Y-tube olfactometer and a new batch of mosquitoes/sand flies. Data from these two replicates were pooled for χ2 goodness of fit test (df=1) between the treatment and blank control.

[5] = 10 μg/cm^2, DEET values are the positive control run with the chemical

SMILES | % of biting (±SE) (N = 3) [1, 5] | % of biting (±SE) (N = 3) ([1]; 100 μg/cm^2) | % of biting (±SE) (N = 3) ([1]; 500 μg/cm^2) | % of biting (±SE) (N = 3) ([1]; 1000 μg/cm^2) | % of biting (±SE) (N = 3) [2, 5] | % of biting (±SE) (N = 3) ([2]; 100 μg/cm^2) | % of biting (±SE) (N = 3) ([2]; 500 μg/cm^2) | % of biting (±SE) (N = 3) ([2]; 1000 μg/cm^2) | GC-EAD antennal activity [3] | spatial repellency, in words [4]
C=C1CC/C=C(\C)CC[C@@H]2[C@@H]1CC2(C)C [β-Caryophyllene, β-caryophyllene] | 40 ± 12b % | 33 ± 24b % | 0 ± 0a % | 0 ± 0a % | 47 ± 18bc % | 40 ± 12bc % | 0 ± 0a % | 7 ± 7a % | active | showed spatial repellency effects
C=C1C2CCC3[C@H]2C(C)(C)CCC[C@]13C (single isomer, unassigned; (+)) [(+)-Longifolene] | 53 ± 7c % | 33 ± 13bc % | 0 ± 0a % | 0 ± 0a % | 53 ± 7c % | 33 ± 7bc % | 0 ± 0a % | 0 ± 0a % | active | showed spatial repellency effects
C=C1CC/C=C(/C)CC[C@@H]2[C@@H]1CC2(C)C [Isocaryophyllene, isocaryophyllene] | 33 ± 7b % | 0 ± 0a % | 0 ± 0a % | 0 ± 0a % | 33 ± 13b % | 7 ± 7a % | 0 ± 0a % | 0 ± 0a % | active | showed spatial repellency effects
